PubChem BioAssay (NCI)
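How tested: cells in 96-well plates exposed to compound for 48 hours at five concentrations. TGI: total growth inhibition.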

What was measured:
Assay in all cases: DTP human tumour cell line panel, 48 h
SR leukemia = test system: SR leukemia
SK-OV-3 ovarian = test system: SK-OV-3 ovarian
HOP-62 NSCLC = test system: HOP-62 NSCLC
MDA-N = test system: MDA-N
MCF7 breast = test system: MCF7 breast
SF-268 CNS = test system: SF-268 CNS
HL-60(TB) leukemia = test system: HL-60(TB) leukemia
OVCAR-5 ovarian = test system: OVCAR-5 ovarian
UACC-257 melanoma = test system: UACC-257 melanoma
IGROV1 ovarian = test system: IGROV1 ovarian
OVCAR-4 ovarian = test system: OVCAR-4 ovarian
PC-3 prostate = test system: PC-3 prostate
OVCAR-8 ovarian = test system: OVCAR-8 ovarian
SN12C renal = test system: SN12C renal
786-0 renal = test system: 786-0 renal
DU-145 prostate = test system: DU-145 prostate
HCT-15 colon = test system: HCT-15 colon
SW-620 colon = test system: SW-620 colon
NCI-H23 lung = test system: NCI-H23 lung
EKVX NSCLC = test system: EKVX NSCLC
KM12 colon = test system: KM12 colon
SNB-75 CNS = test system: SNB-75 CNS
HT29 colon = test system: HT29 colon
NCI/ADR-RES ovarian = test system: NCI/ADR-RES ovarian
NCI-H226 lung = test system: NCI-H226 lung
BT-549 breast = test system: BT-549 breast
NCI-H522 lung = test system: NCI-H522 lung
ACHN renal = test system: ACHN renal
A498 renal = test system: A498 renal
OVCAR-3 ovarian = test system: OVCAR-3 ovarian
M14 melanoma = test system: M14 melanoma
RPMI-8226 leukemia = test system: RPMI-8226 leukemia
CCRF-CEM leukemia = test system: CCRF-CEM leukemia
NCI-H460 lung = test system: NCI-H460 lung
SK-MEL-2 melanoma = test system: SK-MEL-2 melanoma
COLO 205 colon = test system: COLO 205 colon
HS 578T breast = test system: HS 578T breast
UACC-62 melanoma = test system: UACC-62 melanoma
MDA-MB-231 breast = test system: MDA-MB-231 breast
RXF 393 renal = test system: RXF 393 renal
T-47D breast = test system: T-47D breast
A549 NSCLC = test system: A549 NSCLC
SNB-19 CNS = test system: SNB-19 CNS
K-562 leukemia = test system: K-562 leukemia
SK-MEL-28 melanoma = test system: SK-MEL-28 melanoma
SK-MEL-5 melanoma = test system: SK-MEL-5 melanoma
CAKI-1 renal = test system: CAKI-1 renal
TK-10 renal = test system: TK-10 renal
MOLT-4 leukemia = test system: MOLT-4 leukemia
MDA-MB-435 = test system: MDA-MB-435
SF-295 CNS = test system: SF-295 CNS
UO-31 renal = test system: UO-31 renal
HCT-116 colon = test system: HCT-116 colon
HOP-92 NSCLC = test system: HOP-92 NSCLC
MALME-3M melanoma = test system: MALME-3M melanoma
LOX IMVI melanoma = test system: LOX IMVI melanoma
U251 CNS = test system: U251 CNS
HCC-2998 colon = test system: HCC-2998 colon
SF-539 CNS = test system: SF-539 CNS
DMS 273 small cell lung = test system: DMS 273 small cell lung
KM20L2 colon = test system: KM20L2 colon
M19-MEL melanoma = test system: M19-MEL melanoma
DMS 114 small cell lung = test system: DMS 114 small cell lung
LXFL 529 NSCLC = test system: LXFL 529 NSCLC
DLD-1 colon = test system: DLD-1 colon
SNB-78 CNS = test system: SNB-78 CNS
XF 498 CNS = test system: XF 498 CNS

CCCCCCCCCCCCCCCCCCNc1ccn(C2OC(COP(=O)(O)OCC3OC(n4cc(F)c(=O)[nH]c4=O)CC3O)C(O)C2O)c(=O)n1 (stereo unspecified)
TGI (SR leukemia): 28.8 µM
TGI (SK-OV-3 ovarian): > 100 µM
TGI (HOP-62 NSCLC): > 100 µM
TGI (MDA-N): > 100 µM
TGI (MCF7 breast): > 48.6 µM
TGI (SF-268 CNS): > 50 µM
TGI (HL-60(TB) leukemia): 22.1 µM
TGI (OVCAR-5 ovarian): 39.7 µM
TGI (UACC-257 melanoma): > 100 µM
TGI (IGROV1 ovarian): 35.8 µM
TGI (OVCAR-4 ovarian): > 100 µM
TGI (PC-3 prostate): 19.7 µM
TGI (OVCAR-8 ovarian): > 100 µM
TGI (SN12C renal): > 100 µM
TGI (786-0 renal): > 100 µM
TGI (DU-145 prostate): > 100 µM
TGI (HCT-15 colon): > 100 µM
TGI (SW-620 colon): > 100 µM
TGI (NCI-H23 lung): 17.9 µM
TGI (EKVX NSCLC): > 100 µM
TGI (KM12 colon): 41.8 µM
TGI (SNB-75 CNS): > 100 µM
TGI (HT29 colon): > 84.3 µM
TGI (NCI/ADR-RES ovarian): > 54.8 µM
TGI (NCI-H226 lung): > 100 µM
TGI (BT-549 breast): > 79.7 µM
TGI (NCI-H522 lung): > 100 µM
TGI (ACHN renal): > 100 µM
TGI (A498 renal): > 100 µM
TGI (OVCAR-3 ovarian): > 100 µM
TGI (M14 melanoma): > 78.1 µM
TGI (RPMI-8226 leukemia): > 53.3 µM
TGI (CCRF-CEM leukemia): > 49.7 µM
TGI (NCI-H460 lung): > 100 µM
TGI (SK-MEL-2 melanoma): > 100 µM
TGI (COLO 205 colon): > 80.4 µM
TGI (HS 578T breast): > 100 µM
TGI (UACC-62 melanoma): > 74.4 µM
TGI (MDA-MB-231 breast): > 100 µM
TGI (RXF 393 renal): 35.6 µM
TGI (T-47D breast): > 100 µM
TGI (A549 NSCLC): > 100 µM
TGI (SNB-19 CNS): > 100 µM
TGI (K-562 leukemia): > 100 µM
TGI (SK-MEL-28 melanoma): > 100 µM
TGI (SK-MEL-5 melanoma): > 100 µM
TGI (CAKI-1 renal): > 100 µM
TGI (TK-10 renal): > 55.5 µM
TGI (MOLT-4 leukemia): 25.2 µM
TGI (MDA-MB-435): > 100 µM
TGI (SF-295 CNS): > 100 µM
TGI (UO-31 renal): > 100 µM
TGI (HCT-116 colon): > 100 µM
TGI (HOP-92 NSCLC): > 100 µM
TGI (MALME-3M melanoma): > 100 µM
TGI (LOX IMVI melanoma): 18.2 µM
TGI (U251 CNS): > 100 µM
TGI (HCC-2998 colon): > 100 µM

O=c1[nH]c2cc([N+](=O)[O-])ccc2nc1/C(=N/Nc1ccccc1)C(O)c1ccccc1Cl (stereo unspecified)
TGI (SF-539 CNS): > 100 µM
TGI (SK-OV-3 ovarian): > 100 µM
TGI (HOP-62 NSCLC): > 100 µM
TGI (SF-268 CNS): > 100 µM
TGI (HL-60(TB) leukemia): > 100 µM
TGI (OVCAR-5 ovarian): > 100 µM
TGI (UACC-257 melanoma): > 100 µM
TGI (IGROV1 ovarian): > 100 µM
TGI (OVCAR-4 ovarian): > 100 µM
TGI (OVCAR-8 ovarian): > 100 µM
TGI (SN12C renal): > 100 µM
TGI (DMS 273 small cell lung): > 100 µM
TGI (786-0 renal): > 100 µM
TGI (HCT-15 colon): 36.3 µM
TGI (SW-620 colon): > 100 µM
TGI (NCI-H23 lung): > 100 µM
TGI (EKVX NSCLC): > 100 µM
TGI (KM12 colon): > 100 µM
TGI (SNB-75 CNS): > 100 µM
TGI (HT29 colon): > 100 µM
TGI (NCI-H226 lung): > 100 µM
TGI (NCI-H522 lung): > 100 µM
TGI (ACHN renal): > 100 µM
TGI (KM20L2 colon): > 100 µM
TGI (OVCAR-3 ovarian): > 100 µM
TGI (M14 melanoma): > 100 µM
TGI (M19-MEL melanoma): > 100 µM
TGI (RPMI-8226 leukemia): > 100 µM
TGI (CCRF-CEM leukemia): > 100 µM
TGI (NCI-H460 lung): > 100 µM
TGI (SK-MEL-2 melanoma): > 100 µM
TGI (COLO 205 colon): > 100 µM
TGI (DMS 114 small cell lung): > 100 µM
TGI (UACC-62 melanoma): > 100 µM
TGI (RXF 393 renal): > 100 µM
TGI (LXFL 529 NSCLC): > 100 µM
TGI (A549 NSCLC): > 100 µM
TGI (DLD-1 colon): > 100 µM
TGI (SNB-19 CNS): > 100 µM
TGI (K-562 leukemia): > 100 µM
TGI (SK-MEL-28 melanoma): > 100 µM
TGI (SK-MEL-5 melanoma): > 100 µM
TGI (TK-10 renal): > 100 µM
TGI (MOLT-4 leukemia): > 100 µM
TGI (SF-295 CNS): > 100 µM
TGI (SNB-78 CNS): > 100 µM
TGI (XF 498 CNS): > 100 µM
TGI (UO-31 renal): > 100 µM
TGI (HCT-116 colon): > 100 µM
TGI (HOP-92 NSCLC): > 100 µM
TGI (MALME-3M melanoma): > 100 µM
TGI (LOX IMVI melanoma): > 100 µM
TGI (U251 CNS): > 100 µM
TGI (HCC-2998 colon): 64.5 µM

Cn1cc2ccccc2c1-c1nc(F)nc(F)n1
TGI (SF-539 CNS): > 100 µM
TGI (SR leukemia): > 100 µM
TGI (SK-OV-3 ovarian): > 100 µM
TGI (HOP-62 NSCLC): > 100 µM
TGI (SF-268 CNS): > 100 µM
TGI (HL-60(TB) leukemia): > 100 µM
TGI (OVCAR-5 ovarian): > 100 µM
TGI (IGROV1 ovarian): > 100 µM
TGI (OVCAR-4 ovarian): > 100 µM
TGI (SN12C renal): > 100 µM
TGI (DMS 273 small cell lung): > 100 µM
TGI (786-0 renal): > 100 µM
TGI (HCT-15 colon): > 100 µM
TGI (SW-620 colon): > 100 µM
TGI (NCI-H23 lung): > 100 µM
TGI (EKVX NSCLC): > 100 µM
TGI (KM12 colon): > 100 µM
TGI (SNB-75 CNS): > 100 µM
TGI (HT29 colon): > 100 µM
TGI (NCI-H226 lung): > 100 µM
TGI (NCI-H522 lung): > 100 µM
TGI (ACHN renal): > 100 µM
TGI (A498 renal): > 100 µM
TGI (KM20L2 colon): > 100 µM
TGI (OVCAR-3 ovarian): > 100 µM
TGI (M14 melanoma): > 100 µM
TGI (M19-MEL melanoma): > 100 µM
TGI (RPMI-8226 leukemia): 90.5 µM
TGI (CCRF-CEM leukemia): > 100 µM
TGI (NCI-H460 lung): > 100 µM
TGI (SK-MEL-2 melanoma): > 100 µM
TGI (COLO 205 colon): > 100 µM
TGI (DMS 114 small cell lung): > 100 µM
TGI (RXF 393 renal): > 100 µM
TGI (LXFL 529 NSCLC): > 100 µM
TGI (A549 NSCLC): > 100 µM
TGI (DLD-1 colon): > 100 µM
TGI (SNB-19 CNS): > 100 µM
TGI (K-562 leukemia): > 100 µM
TGI (SK-MEL-28 melanoma): > 100 µM
TGI (SK-MEL-5 melanoma): > 100 µM
TGI (CAKI-1 renal): > 100 µM
TGI (TK-10 renal): > 100 µM
TGI (MOLT-4 leukemia): > 100 µM
TGI (SF-295 CNS): > 100 µM
TGI (SNB-78 CNS): > 100 µM
TGI (XF 498 CNS): 90.6 µM
TGI (UO-31 renal): > 100 µM
TGI (HCT-116 colon): > 100 µM
TGI (HOP-92 NSCLC): > 100 µM
TGI (MALME-3M melanoma): > 100 µM
TGI (LOX IMVI melanoma): > 100 µM
TGI (U251 CNS): > 100 µM
TGI (HCC-2998 colon): > 100 µM
